Test results from paper PMC6723439, “The Aryl Hydrocarbon Receptor (AhR) Mediates the Counter-Regulatory Effects of Pelargonidins in Models of Inflammation and Metabolic Dysfunctions” (Nutrients, 2019).

How the values were obtained:
[1] = biological target: T1, aryl hydrocarbon receptor (AhR) (Homo sapiens, UniProt P35869); test: AhR luciferase reporter transactivation in AhR-transfected HepG2 cells; effects lost in AhR-/- macrophages; assay type: cell-based
T1 construct: pCMVXL4AhR transfected in HepG2 cells
T1 sequence (P35869 11-848): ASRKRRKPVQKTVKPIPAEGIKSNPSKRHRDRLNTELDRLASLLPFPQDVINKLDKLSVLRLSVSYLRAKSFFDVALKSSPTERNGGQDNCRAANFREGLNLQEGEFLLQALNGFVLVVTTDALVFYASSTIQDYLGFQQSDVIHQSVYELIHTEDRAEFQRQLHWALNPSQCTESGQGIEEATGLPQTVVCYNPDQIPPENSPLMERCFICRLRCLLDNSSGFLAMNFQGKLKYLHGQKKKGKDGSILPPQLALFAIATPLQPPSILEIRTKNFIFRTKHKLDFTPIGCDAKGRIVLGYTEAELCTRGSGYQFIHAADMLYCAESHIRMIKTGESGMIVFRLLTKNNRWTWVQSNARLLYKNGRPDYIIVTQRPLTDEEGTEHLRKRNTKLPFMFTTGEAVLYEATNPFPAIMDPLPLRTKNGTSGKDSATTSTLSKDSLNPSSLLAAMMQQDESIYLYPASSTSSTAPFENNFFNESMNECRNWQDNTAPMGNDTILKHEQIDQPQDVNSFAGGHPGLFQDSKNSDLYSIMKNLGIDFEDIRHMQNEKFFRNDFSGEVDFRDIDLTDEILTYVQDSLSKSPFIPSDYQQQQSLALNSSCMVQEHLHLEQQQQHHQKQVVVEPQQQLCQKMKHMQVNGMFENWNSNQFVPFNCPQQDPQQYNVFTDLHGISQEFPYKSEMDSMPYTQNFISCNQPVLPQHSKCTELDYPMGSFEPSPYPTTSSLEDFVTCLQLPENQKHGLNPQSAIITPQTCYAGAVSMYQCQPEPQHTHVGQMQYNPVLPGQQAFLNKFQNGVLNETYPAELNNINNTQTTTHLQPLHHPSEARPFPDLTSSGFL

[2] = biological target: T1, aryl hydrocarbon receptor (AhR); test: AhR luciferase reporter transactivation in AhR-transfected HepG2 cells; assay type: cell-based

COc1ccc(-c2[o+]c3cc(OC)cc(OC)c3cc2O)cc1 [Mt-P, methylated pelargonidin]
EC50 [1]: 1970 nM

Oc1ccc(-c2[o+]c3cc(O)cc(O)c3cc2O)cc1 [P, pelargonidin]
EC50 [2]: 4000 nM
